Test results taken from patent US20240398771A1, “TREATMENT OF SCLERODERMA AND RAYNAUD'S SYNDROME” (Aisa Pharma, Inc., priority 2023, published 2024).

Experiments:
Assay type in all cases: in vivo, human
participants with SSc-RP [1] = experiment: Average duration of weekly RP attacks, all attacks (minutes); conditions: ITT Population - Part A (Table B-5)
Description: The relevant metrics measured by this tool daily are: • Study medication • SSc-RP symptoms (Reporting an attack including duration of attack) • Severity of the attack considering all symptoms of the attack e.g. tingling, numbness, pain, color changes (VAS 0-10 cm scale) • Participant's location at the time of the attack (inside home/outside home) • Selecting symptoms experienced during the attack (tingling, numbness, pain, color changes, other) • Pain rating during the attack (11-point Likert scale) • The RCS based on how much difficulty participants had with Raynaud's today, how many attacks the participant had, and how long they lasted. Participants will also be asked to consider how much pain, numbness, or other symptoms the Raynaud's caused in fingers (including painful sores), and how much the Raynaud's alone affected the use of hands today (VAS 0-10 cm scale).
The absolute change in average duration of weekly RP attacks from baseline to the end of each dosing period was and will be a secondary outcome variable. The sponsor-developed participant-informed diary was and will be used to record data. Average duration of weekly RP attacks is defined as the total duration of RP attacks divided by total number of RP attacks within the last 7 days of each dosing period. Total duration of RP attacks during the last 7 days of screening period divided by the total number of RP attacks will be used as baseline for the analysis of all periods. The variable will be calculated similar to frequency data as before.

participants with SSc-RP [2] = experiment: SHAQ Visual Analog Scale - Pain
Experimental: (§1) Results: Patients in the study were administered the Scleroderma Health Assessment Questionnaire (SHAQ) at the time of study entry and during clinic visits following the treatment period. The study is a two-part, parallel arm design, prospective, double-blind, randomized study conducted in Australia (Flinders Medical Center). 27 patients were randomized into the first phase of the study, following which a DSMB meeting was held, which reviewed data on the primary study endpoint and key Raynaud's secondary endpoints. Data on the SHAQ was not available for the DSMB to review. The mITT population, in which any data was available post treatment was 24 patients was the analysis population for this first part of the study. The second part (i.e., part B) of the study will randomize 36 patients in a double blind, randomized, prospective, placebo controlled, crossover study. In the first part (i.e., Part A) of the study for which data is presented, patients were randomized into 6 groups, cilnidipine at two doses (10 and 20 mg) alone and in combination with tadalafil 5 mg, tadalafil 5 mg alone, and placebo. […] The DSMB recommended that the study proceed into its double blind prospective cross overpowered second phase and compare cilnidipine 20 mg alone to placebo. […] Cilnidipine treatment may reduce patient-reported SSc disease disability compared to placebo • b. Cilnidipine treatment may reduce patient-reported SSc disease alternative disability compared to placebo • c. Cilnidipine treatment may reduce patient-reported SSc disease pain* compared to placebo • d. Cilnidipine treatment may reduce patient-reported SSc disease severity compared to placebo • e. Cilnidipine treatment may reduce patient-reported SSc disease skin ulcer severity rating compared to placebo • f Cilnidipine treatment may reduce patient-reported SSc disease breathing difficulty compared to placebo • g. […] SSc disease pain comprises not only pain from Raynaud's but joint pain, headache, odynophagia, back pain, pain from skin ulceration, and neuropathic pain). Table E includes results of the Scleroderma Health Assessment Questionnaire.
Pain on the SHAQ outcome measure on the first line in table F is a composite of all pain experienced in patients with SSc, comprising joint pain, back pain, headache, odynophagia, skin ulcer related discomfort, Raynaud's, and neuropathic pain. Aisa Pharma believes, based on the biologic attributes and actions of cilnidipine that differ from most dihydropyridine calcium channel antagonists that cilnidipine might have direct analgesic effects in certain pain conditions and in fact has been designated to receive evaluation through the NIH-NINDS Preclinical Pain Screening Platform Program to investigate the drug in multiple in vitro and in vivo preclinical models of pain that are validated and predictive of effects in man.

participants with SSc-RP [3] = experiment: SHAQ Visual Analog Scale - Intestinal Problems; conditions: Cilnidipine 20 mg; Modified ITT, Part A
Experimental: as §1

participants with SSc-RP [4] = experiment: SHAQ Visual Analog Scale - Finger Ulcers; set-up: Finger Ulcers, Baseline, Mean / Finger Ulcers, Baseline, Median / Finger Ulcers, Change from Baseline, Mean / Finger Ulcers, Change from Baseline, Median: scale not given here; conditions: for Finger Ulcers, Baseline, Mean / Finger Ulcers, Baseline, Median / Finger Ulcers, Change from Baseline, Median / Finger Ulcers, In Clinic Visit (Day 12), Median: Modified ITT, Part A
Experimental: as §1

[5] = last 7 days of dosing period, listed as Cilnidipine 20 mg
[6] = last 7 days of dosing period, listed as Pooled Cilnidipine
[7] = last 7 days of screening period, listed as Cilnidipine 10 mg
[8] = last 7 days of screening period, listed as Cilnidipine 20 mg
[9] = last 7 days of screening period, listed as Pooled Cilnidipine

With `COCCOC(=O)C1=C(C)NC(C)=C(C(=O)OC/C=C/c2ccccc2)C1c1cccc([N+](=O)[O-])c1` (stereo not drawn) [Cilnidipine, 1,4-dihydro-2,6-dimethyl,4-(3-nitrophenyl)-3,5-pyridinedicarboxylic acid 2-methoxyethyl (2 E)-3-phenyl-2-propenyl ester] the “Average Duration of weekly RP attacks (All Attacks), Max” value (participants with SSc-RP [1]; [5]) was 30.5 min, the “Average Duration of weekly RP attacks (All Attacks), Q1” value (participants with SSc-RP [1]; [5]) was 3.00 min and the “Average duration of weekly RP attacks (All Attacks), Change from Baseline” value (participants with SSc-RP [1]; [5]) was -7.6 min. For the same compound, the “Average duration of weekly RP attacks (All Attacks), Change from Baseline, Max” value (participants with SSc-RP [1]; [5]) was 5.5 min, the “Average duration of weekly RP attacks (All Attacks), Change from Baseline, Q3” value (participants with SSc-RP [1]; [5]) was 5.45 min and the “Average duration of weekly RP attacks (All Attacks), Percent Change from Baseline, Max” value (participants with SSc-RP [1]; [5]) was 21.8%. For the same compound, the “Average duration of weekly RP attacks (All Attacks), Percent Change from Baseline, Min” value (participants with SSc-RP [1]; [5]) was −71.8%, the “Average duration of weekly RP attacks (All Attacks), Percent Change from Baseline, Q1” value (participants with SSc-RP [1]; [5]) was −71.76% and the “Average duration of weekly RP attacks (All Attacks), Percent Change from Baseline, Q3” value (participants with SSc-RP [1]; [5]) was 21.82%. The “Average Duration of weekly RP attacks (All Attacks)” value (participants with SSc-RP [1]; [6]) was 3.0 min, the “Average Duration of weekly RP attacks (All Attacks), Max” value (participants with SSc-RP [1]; [6]) was 31.5 min and the “Average Duration of weekly RP attacks (All Attacks), Q1” value (participants with SSc-RP [1]; [6]) was 3.00 min. The “Average duration of weekly RP attacks (All Attacks), Change from Baseline” value (participants with SSc-RP [1]; [6]) was -8.5 min, the “Average duration of weekly RP attacks (All Attacks), Change from Baseline, Max” value (participants with SSc-RP [1]; [6]) was 5.5 min and the “Average duration of weekly RP attacks (All Attacks), Change from Baseline, Median” value (participants with SSc-RP [1]; [6]) was -7.63 min. For the same compound, the “Average duration of weekly RP attacks (All Attacks), Change from Baseline, Q1” value (participants with SSc-RP [1]; [6]) was -8.48 min, the “Average duration of weekly RP attacks (All Attacks), Change from Baseline, Q3” value (participants with SSc-RP [1]; [6]) was 5.45 min and the “Average duration of weekly RP attacks (All Attacks), Percent Change from Baseline, Max” value (participants with SSc-RP [1]; [6]) was 21.8%. The “Average duration of weekly RP attacks (All Attacks), Percent Change from Baseline, Min” value (participants with SSc-RP [1]; [6]) was −71.8%, the “Average duration of weekly RP attacks (All Attacks), Percent Change from Baseline, Q1” value (participants with SSc-RP [1]; [6]) was −71.76% and the “Average duration of weekly RP attacks (All Attacks), Percent Change from Baseline, Q3” value (participants with SSc-RP [1]; [6]) was 21.82%. The “Average duration of weekly RP attacks (All Attacks), Baseline, Max” value (participants with SSc-RP [1]; [7]) was 40.0, 40.0 minutes, the “Average duration of weekly RP attacks (All Attacks), Baseline, Min” value (participants with SSc-RP [1]; [7]) was 40.0, 40.0 minutes and the “Average duration of weekly RP attacks (All Attacks), Baseline, Q1” value (participants with SSc-RP [1]; [7]) was 40.00, 40.00 minutes. The “Average duration of weekly RP attacks (All Attacks), Baseline, Q3” value (participants with SSc-RP [1]; [7]) was 40.00, 40.00 minutes, the “Average duration of weekly RP attacks (All Attacks), Baseline” value (participants with SSc-RP [1]; [8]) was 10.6 min and the “Average duration of weekly RP attacks (All Attacks), Baseline, Max” value (participants with SSc-RP [1]; [8]) was 25.0 min. For the same compound, the “Average duration of weekly RP attacks (All Attacks), Baseline, Q1” value (participants with SSc-RP [1]; [8]) was 10.63 min, the “Average duration of weekly RP attacks (All Attacks), Baseline, Q3” value (participants with SSc-RP [1]; [8]) was 25.00 min and the “Average duration of weekly RP attacks (All Attacks), Baseline” value (participants with SSc-RP [1]; [9]) was 10.6 min. The “Average duration of weekly RP attacks (All Attacks), Baseline, Max” value (participants with SSc-RP [1]; [9]) was 40.0 min, the “Average duration of weekly RP attacks (All Attacks), Baseline, Mean” value (participants with SSc-RP [1]; [9]) was 25.21 min and the “Average duration of weekly RP attacks (All Attacks), Baseline, Median” value (participants with SSc-RP [1]; [9]) was 25.00 min. For the same compound, the “Average duration of weekly RP attacks (All Attacks), Baseline, Q1” value (participants with SSc-RP [1]; [9]) was 10.63 min, the “Average duration of weekly RP attacks (All Attacks), Baseline, Q3” value (participants with SSc-RP [1]; [9]) was 40.00 min and the “VAS- PAIN, Baseline on a 0-10 VAS” value (participants with SSc-RP [2]; Cilnidipine 20 mg (n = 3), footnote *) was “*Baseline was 2.17 on a 0-10 VAS”. For the same compound, the “Visual Analog Scale-Pain, Baseline, Median” value (participants with SSc-RP [2]; Cilnidipine 20 mg, Modified ITT, Part A) was 1.500, the “patient-reported SSc disease pain compared to placebo” value (participants with SSc-RP [2]; Example 4, SHAQ, mITT Part A) was “may reduce” and the “Visual Analog Scale-Intestinal Problems, Baseline, Median” value (participants with SSc-RP [3]) was 1.000. The “Finger Ulcers, Baseline, Mean” value (participants with SSc-RP [4]; Cilnidipine 10 mg) was 0.700, the “Finger Ulcers, Baseline, Median” value (participants with SSc-RP [4]; Cilnidipine 10 mg) was 0.500 and the “Finger Ulcers, Change from Baseline, Median” value (participants with SSc-RP [4]; Cilnidipine 10 mg) was −0.350. The “Finger Ulcers, In Clinic Visit (Day 12), Median” value (participants with SSc-RP [4]; Cilnidipine 10 mg) was 0.000, the “Finger Ulcers, Baseline, Mean” value (participants with SSc-RP [4]; Cilnidipine 20 mg) was 1.800 and the “Finger Ulcers, Baseline, Median” value (participants with SSc-RP [4]; Cilnidipine 20 mg) was 0.300. For the same compound, the “Finger Ulcers, Change from Baseline, Median” value (participants with SSc-RP [4]; Cilnidipine 20 mg) was 0.000, the “Finger Ulcers, In Clinic Visit (Day 12), Median” value (participants with SSc-RP [4]; Cilnidipine 20 mg) was 0.700 and the “patient-reported SSc disease skin ulcer severity rating compared to placebo” value (participants with SSc-RP [4]; Example 4, SHAQ, mITT Part A) was “may reduce”.
